# Measurements as given in US7910723B2, “IG20 splice variants therapeutics for cancer” (The Board of Trustees of the University of Illinois, priority 2006, dated 2011).
# Columns and labels:
# [1] = system: IG20-SVs; experiment: Screening of shRNAs: knock-down of exogenous IG20-SV-YFP expression in 293T cells (flow cytometry); assay type: cell-based
# Procedure: In order to determine which of the IG20-SVs contribute to apoptosis and cell proliferation, siRNA (small inhibitory RNA) approach was used to selectively knockdown IG20-SVs (Table 1). The siRNAs were cloned into the pSUPER vector to allow for expression of shRNAs (small hairpin RNAs). 293T cells were co-transfected with YFPIG20pa, YFP-MADD or YFP-DENN-SV along with different shRNA-expressing pSUPER vectors at ratios of 1:1, 1:3 and 1:7. Knock-down of protein expression was assessed by a reduction in YFP expression using flow cytometry. Several shRNAs were screened. Knock-down of expression of exogenous IG20-SVs were analyzed. 293T cells were plated onto 12-well plates and cotransfected with the indicated IG20-SV-YFP and pSUPER-shRNA constructs. YFP expression was represented as Mean Fluorescence Intensity. Specificity of Mid-shRNA was analyzed. The inability of Mid-shRNA to suppress the expression of mutant-IG20pa, -MADD, and -DENN-SV constructs was analyzed. […] Vector alone or a control shRNA had little or no effect on the expression of IG20-SVs. The sequences provided in Table 1 are exemplary and other sequences that specifically target MADD or any other isoform can be designed by those of skill in the art based on the information given in Table 1 and the disclosure in general.
# To further confirm specificity of Mid-shRNA, silent mutations were created in cDNAs encoding IG20-SVs at sites corresponding to the 5th, 7th, 11th and 14th nucleotides of the Mid-shRNA. These mutations neither affected the amino acid sequence nor protein expression. Mutant-IG20-SV constructs were cotransfected with the pSUPER-shRNA and assessed for their expression. […] FIG. 18 is a schematic illustration of the targets of some of the shRNAs used to knock-down specific IG20 splice variants (isoforms). FIG. 11 provides schematic illustration of screening for shRNAs (A) and lentivirus production that contain the shRNA expressing vectors (B). Fluorescence values were measured from cells transfected with the respective shRNAs (FIG. 12).
# Screening of shRNAs. IG20-YFP constructs were co-transfected with different pSUPER-shRNA constructs in different ratios (1:1, 1:3, 1:7) into 293T cells using Calcium phosphate. 24 hours post-transduction, cells were trypsinized, collected and washed twice in cold PBS, and analyzed for YFP expression by flow cytometry using a FACS Calibur (Becton Dickinson, N.J.).
# [2] = system: IG20-SVs; experiment: RT-PCR of IG20-SVs in shRNA-transduced PA-1 cells; assay type: cell-based; details: PA-1, 72 hours post-transduction
# Procedure: The effects of IG20 down-modulation in PA-1 cells were analyzed. Down-modulation of endogenous IG20 in PA-1 cells was analyzed. RT-PCR of IG20-SVs using F2-B2 primers from PA-1 cells 72 hours post-transduction was performed. Amplification of only IG20pa and MADD using 13L-F and B2 primers was performed. Nuclear Condensation was also determined. 72 hours post-transduction, PA-1 cells were stained with Hoechst stain and analyzed by FACS. Mitochondrial Depolarization was performed. 72 hours post transduction, PA-1 cells were stained with TMRM and analyzed by FACS.
# RT-PCR. Total RNA was extracted from 1×10^6 transduced cells using Trizol (Invitrogen Life Technologies, Carlsbad, Calif.), and 1 jig of RNA was used for RT-PCR using the Super-Script One-Step RT-PCR system (Invitrogen Life Technologies, Carlsbad, Calif.). Briefly, the cDNAs were synthesized at 50° C. for 30 minutes followed by incubation at 94° C. for 2 minutes. Subsequently, 35 cycles of PCR were carried out with de-naturation at 95° C. for 30 seconds, annealing at 55° C. for 30 seconds and extension at 72° C. for 1 minute. This was followed by a final incubation at 72° C. for 7 minutes. The sequences of F2-B2 and GAPDH primers were as published (Al-Zoubi et al., (2001), J Biol Chem, 276 (50), 47202-11.). 13L-Forward (5′[…]3′ (SEQ ID NO: 15)) and B2-reverse primers were used to amplify only MADD and IG20pa. […]
substance,measurement,setting,value
"13L-shRNA: shRNA targeting exon 13L (IG20, MADD), 5′ CGGCGAATCTATGACAATC-3′ (SEQ ID NO: 4)",Effect on IG20-SVs devoid of the targeted exon (specificity),[1],little or no effect on IG20-SVs devoid of the targeted exon
same,"Knock-down of expression of exogenous IG20-SVs (YFP expression, Mean Fluorescence Intensity)","[1]; 293T cells cotransfected with IG20-SV-YFP and pSUPER-shRNA, ratios 1:1, 1:3, 1:7","down-modulated IG20pa/MADD, leaving the expression of IG20-SV2 and DENN-SV unaltered"
same,Down-modulation of endogenous IG20-SVs (RT-PCR),[2],abrogated only MADD expression
